Each block holds one compound with its values, some of them ahead of it.
What was measured:
human TfR1 = target: T1, human TfR1 (Homo sapiens, UniProt P02786); assay: Surface plasmon resonance (SPR) binding affinity assay, Biacore 8K; details: recombinant human TfR1-Fc immobilized, read-out: association rate constant (Ka)
T1 construct: Fc; purchased Acro Biosystems TFR-H5264
Description: 1 (A) Synthetic scheme for^68 Ga-NOTA-TR01; (B) ESI-MS analysis of TR01; (C) Binding response (nm) between human TfR1 and varying concentrations (62.5–1,000 nM) of TR01; (D, E) Stability assessment of ^68 Ga-NOTA-TR01 in PBS and serum at 37 °C, measured by radio-HPLC.
SPR was employed to quantify the binding interaction between TR01 and TfR1.
The binding affinity of NOTA-TR01 to human TfR1 was evaluated by surface plasmon resonance (SPR) using a Biacore 8K system (Cytiva, USA) at Nanjing Genscript Probio. Recombinant human TfR1-Fc protein (TFR-H5264, Acro Biosystems) was immobilized on the sensor chip for kinetic analysis. The assay was performed under acidic conditions (pH 2.0) using a running buffer containing […]. Real-time binding data were collected at a 1:1 ligand-to-analyte ratio. The equilibrium dissociation constant (KD) was calculated by globally fitting the association and dissociation curves.

[1] = type: physicochemical; details: 37 °C, 24 h, ∼3.7 MBq in 200 μL, radio-HPLC
Description: Collectively, these findings confirmed the suitability of ^68Ga-NOTA-TR01 for further preclinical applications.
[…] At each time point, radiochemical integrity was assessed via radio-HPLC by comparing the retention time of the incubated samples with that of a nonincubated control.

in vivo = assay: in vivo; design: species or system BALB/c nude mice; details: BALB/c nude, mouse, iv, total radioactivity
Description: Three mice were included at each time point; %ID/g is the percentage of injected dose per gram of tissue.
Xenograft tumor models were established by subcutaneously injecting 1 × 10^7 LOVO or HT29 cells (in 100 μL PBS) into the right flank of 5–6-week-old BALB/c nude mice (purchased from Hangzhou Ziyuan Experimental Animal Technology). Tumor growth was monitored by caliper measurement, and imaging experiments were initiated once tumors reached a volume of 100–300 mm^3. All animal procedures were conducted in accordance with the institutional guidelines of the Animal Care and Use Committee at Soochow University.
A comparative biodistribution study was conducted in BALB/c nude mice (n = 3 per group), each intravenously injected with ^68Ga-NOTA-TR01 (1.85 ± 0.49 MBq, corresponding to ∼0.15 nmol peptide, in 100 μL saline). At 30-, 60-, and 120 min postinjection, mice were euthanized for terminal blood collection and organ harvesting. For blocking studies, an additional cohort was sacrificed at 60 min following coinjection with cold NOTA-TR01 (300 μg, ∼0.1 μmol per mouse). Excised tissues were perfused three times with PBS to remove residual blood, weighed, and their radioactivity quantified using a γ-counter. The biodistribution of the radiotracer was expressed as %ID/g. Tumor-to-background ratios (TBRs) were calculated to assess tracer specificity.

LOVO cells (TfR1 low) = assay: Cellular binding assay in LOVO cells; type: cell-based, human; details: 37 °C, 37 kBq, γ-counter, triplicate
Description: (§1) The percentage of added dose per 5 × 10^5 cells (%AD/5 × 10^5 cells) was as follows: at 30 min: 5.44 ± 0.12% (HT29) vs 2.63 ± 0.09% (LOVO), at 60 min: 6.36 ± 0.05% (HT29) vs 3.19 ± 0.23% (LOVO), at 120 min: 9.56 ± 0.17% (HT29) vs 4.51 ± 0.22% (LOVO).
(§2) The cell-specific binding of ^68Ga-NOTA-TR01 was evaluated in HT29 and LOVO cells. Cells were seeded in 12-well plates (5 × 10^5 cells/well) and cultured for 24 h under standard conditions (37 °C, 5% CO2). After washing with cold PBS, cells were incubated with 1 mL serum-free medium containing ^68Ga-NOTA-TR01 (37 kBq, ∼[…] corresponding to approximately 0.4 pmol of peptide). For blocking studies, parallel wells were pretreated with a 1,000-fold molar excess (3.3 nmol, 1 μg) of unlabeled TR01 peptide. Cellular binding was assessed at 0.5, 1, 2, and 4 h postincubation. Following incubation, cells were washed twice with ice-cold PBS, lysed in 1 M NaOH, and the associated radioactivity was measured using a γ-counter. Radioactivity data were corrected for decay using the ^68Ga decay constant (λ = 0.00876 min^– 1). Each condition was measured in triplicate for statistical accuracy.

physchem = type: physicochemical
Description: The molar activity was determined to be greater than 20 GBq/μmol. The log P was calculated as −1.709 ± 0.121 (n = 6), indicating a hydrophilic profile.
The lipophilicity of ^68Ga-NOTA-TR01 was determined via a standard octanol–water partition method. A solution of ^68Ga-NOTA-TR01 [5 μL, 0.74 MBq in phosphate-buffered saline (PBS)] was mixed with 0.5 mL n-octanol and 0.495 mL PBS. The biphasic system was vortexed for 3 min and centrifuged at 4,000 rpm for 5 min to achieve phase separation. Aliquots (100 μL) from each layer were sampled, and radioactivity was measured using a γ-counter. The log P was calculated using the formula: log P = log (cpm_octanol/cpm_PBS).

HT29 cells (TfR1 high) = assay: Cellular binding/blocking assay in HT29 cells; type: cell-based, human; details: for cellular binding: HT29, 37 °C, 37 kBq, γ-counter, triplicate
Description: as §1, §2

T1 sequence (P02786 whole entry): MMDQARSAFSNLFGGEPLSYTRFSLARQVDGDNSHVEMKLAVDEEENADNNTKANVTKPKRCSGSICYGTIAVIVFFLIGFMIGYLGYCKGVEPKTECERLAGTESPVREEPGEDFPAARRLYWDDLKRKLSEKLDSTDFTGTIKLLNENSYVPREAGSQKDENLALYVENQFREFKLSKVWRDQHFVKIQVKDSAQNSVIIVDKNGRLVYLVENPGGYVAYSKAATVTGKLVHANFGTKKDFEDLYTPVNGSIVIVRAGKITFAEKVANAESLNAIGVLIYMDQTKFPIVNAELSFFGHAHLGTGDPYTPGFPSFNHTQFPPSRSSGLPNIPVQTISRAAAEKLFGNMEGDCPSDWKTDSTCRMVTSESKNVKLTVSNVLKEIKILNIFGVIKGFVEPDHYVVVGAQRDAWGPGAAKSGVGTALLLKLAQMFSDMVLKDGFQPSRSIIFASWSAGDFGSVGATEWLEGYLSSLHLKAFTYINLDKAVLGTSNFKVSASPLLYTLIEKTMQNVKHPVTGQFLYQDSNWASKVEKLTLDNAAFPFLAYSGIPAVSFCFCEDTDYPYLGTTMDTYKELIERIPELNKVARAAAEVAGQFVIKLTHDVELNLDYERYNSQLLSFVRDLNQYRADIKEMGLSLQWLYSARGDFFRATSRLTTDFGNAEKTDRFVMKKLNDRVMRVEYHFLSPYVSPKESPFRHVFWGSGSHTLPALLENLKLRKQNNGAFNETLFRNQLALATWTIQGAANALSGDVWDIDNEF

kon (human TfR1): 77300 M⁻¹ s⁻¹
Structure (SMILES): CC[C@H](C)[C@@H]1NC(=O)[C@H](Cc2ccc(O)cc2)NC(=O)[C@H](Cc2ccc(O)cc2)NC(=O)[C@H](CC(N)=O)NC(=O)[C@H](Cc2c[nH]c3ccccc23)NC(=O)[C@H](C(C)C)NC(=O)[C@H](Cc2ccccc2)NC(=O)[C@H](C(C)C)NC(=O)[C@H](C)NC(=O)CSC[C@@H](C(=O)NCCOCCOCCOCCOCCOCCOCCOCCOCCOCCOCCOCCOCCC(=O)N[C@@H](CCCCNC(=O)CN2CCN(CC(=O)O)CCN(CC(=O)O)CC2)C(=O)O)NC(=O)[C@H](Cc2ccc(O)cc2)N(C)C(=O)[C@H](Cc2ccc(O)cc2)NC(=O)[C@H](CCCNC(=N)N)NC(=O)[C@H](CCCNC(=N)N)NC(=O)[C@H]([C@@H](C)CC)NC1=O [NOTA-TR01, cyclo(Ac-Ala-Val-Phe-Val-Trp-Asn-Tyr-Tyr-Ile-Ile-Arg-Arg-Tyr-NMe-Tyr-Cys)-PEG12-Lys-NOTA]

Structure (SMILES): CC[C@H](C)[C@@H]1NC(=O)[C@H](Cc2ccc(O)cc2)NC(=O)[C@H](Cc2ccc(O)cc2)NC(=O)[C@H](CC(N)=O)NC(=O)[C@H](Cc2c[nH]c3ccccc23)NC(=O)[C@H](C(C)C)NC(=O)[C@H](Cc2ccccc2)NC(=O)[C@H](C(C)C)NC(=O)[C@H](C)NC(=O)CSC[C@@H](C(=O)NCCOCCOCCOCCOCCOCCOCCOCCOCCOCCOCCOCCOCCC(=O)N[C@@H](CCCCNC(=O)CN2CCN(CC(=O)O)CCN(CC(=O)O)CC2)C(=O)O)NC(=O)[C@H](Cc2ccc(O)cc2)N(C)C(=O)[C@H](Cc2ccc(O)cc2)NC(=O)[C@H](CCCNC(=N)N)NC(=O)[C@H](CCCNC(=N)N)NC(=O)[C@H]([C@@H](C)CC)NC1=O [^68Ga-NOTA-TR01, metal not drawn]
radiochemical integrity after incubation in PBS [1]: > 98% | tissue to tissue ratio at 2 h (in vivo): > 7 | cellular binding (LOVO cells (TfR1 low); 30 min): 2.63 ± 0.09 %AD/5 × 10^5 cells | cellular binding (LOVO cells (TfR1 low); 60 min): 3.19 ± 0.23 %AD/5 × 10^5 cells | cellular binding (LOVO cells (TfR1 low); 120 min): 4.51 ± 0.22 %AD/5 × 10^5 cells | logD (physchem): -1.71 ± 0.121 | cellular binding (HT29 cells (TfR1 high); 30 min): 5.44 ± 0.12 %AD/5 × 10^5 cells | cellular binding (HT29 cells (TfR1 high); 60 min): 6.36 ± 0.05 %AD/5 × 10^5 cells | cellular binding (HT29 cells (TfR1 high); 120 min): 9.56 ± 0.17 %AD/5 × 10^5 cells | cellular binding, blocking group (HT29 cells (TfR1 high); HT29, preincubation with 1,000-fold molar excess of unlabeled TR01, 30 min): 1.58 ± 0.06% | cellular binding, blocking group (HT29 cells (TfR1 high); HT29, preincubation with 1,000-fold molar excess of unlabeled TR01, 60 min): 1.34 ± 0.29% | cellular binding, blocking group (HT29 cells (TfR1 high); HT29, preincubation with 1,000-fold molar excess of unlabeled TR01, 120 min): 1.27 ± 0.09% | inhibition of cell binding by cold peptide (HT29 cells (TfR1 high); HT29 cells, cold peptide): over 85%
